# Data taken from the supplement of paper PMC10307832.
# Key:
# Assay in all cases: relative viability (nuclei count vs DMSO), 5 days (fraction); higher = more cells survive
# [1] = compound: C1=CC=C(C(=C1)C2=CC=C(C=C2)C3=CSC4=C3C(=C(C(=O)N4)C#N)O)O + CC(=O)Nc1cccc(-n2c(=O)n(C3CC3)c(=O)c3c(Nc4ccc(I)cc4F)n(C)c(=O)c(C)c32)c1 [Trametinib] (partner 0.02 µM)
# How it was run: (§1)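 Nuclei were stained with Hoechst during a one-step fixation (final 0.05% Triton X-100, 1% formaldehyde, 1 ug/ml Hoechst) carried out 5 days after dosing, then counted on 4× images. The cells, lung cancer lines in 1536-well plates, had been dosed by pin tool the day after seeding with one drug alone or a fixed anchor-drug dose plus five library-drug doses (not always all listed) in √10 steps. Relative viability is the nuclei count in treated wells divided by that in vehicle wells, and each value is the median of duplicate plates.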
# [2] = compound: C1=CC=C(C(=C1)C2=CC=C(C=C2)C3=CSC4=C3C(=C(C(=O)N4)C#N)O)O + CC1(C)CCC(c2ccc(Cl)cc2)=C(CN2CCN(c3ccc(C(=O)NS(=O)(=O)c4ccc(N[C@H](CCN5CCOCC5)CSc5ccccc5)c(S(=O)(=O)C(F)(F)F)c4)cc3)CC2)C1 [Navitoclax] (partner 0.5 µM)
# How it was run: as §1
# [3] = compound: C1=CC=C(C(=C1)C2=CC=C(C=C2)C3=CSC4=C3C(=C(C(=O)N4)C#N)O)O + N=C(N)NC(=N)NCCc1ccccc1 [Phenformin] (partner 250 µM)
# How it was run: as §1
# TGX 221 + Palbociclib = compound: CC1=CN2C(=O)C=C(N=C2C(=C1)C(C)NC3=CC=CC=C3)N4CCOCC4 [TGX 221] + CC(=O)c1c(C)c2cnc(Nc3ccc(N4CCNCC4)cn3)nc2n(C2CCCC2)c1=O [Palbociclib] (partner 0.5 µM)
# How it was run: as §1
cell line,measurement,setting,value
NCI-H1792,relative viability,[1]; first compound 0.253 µM,0.536
same,relative viability,[1]; first compound 0.8 µM,0.424
same,relative viability,[1]; first compound 2.53 µM,0.364
same,relative viability,[1]; first compound 8 µM,0.165
same,relative viability,[2]; first compound 0.253 µM,0.441
same,relative viability,[2]; first compound 0.8 µM,0.354
same,relative viability,[2]; first compound 2.53 µM,0.704
same,relative viability,[2]; first compound 8 µM,0.276
same,relative viability,[3]; first compound 0.08 µM,0.113
same,relative viability,[3]; first compound 0.253 µM,0.283
same,relative viability,[3]; first compound 0.8 µM,0.287
same,relative viability,[3]; first compound 2.53 µM,0.36
same,relative viability,[3]; first compound 8 µM,0.268
same,relative viability,TGX 221 + Palbociclib; first compound 0.08 µM,0.593
same,relative viability,TGX 221 + Palbociclib; first compound 0.253 µM,0.625
same,relative viability,TGX 221 + Palbociclib; first compound 0.8 µM,0.654
same,relative viability,TGX 221 + Palbociclib; first compound 2.53 µM,0.57
same,relative viability,TGX 221 + Palbociclib; first compound 8 µM,0.582
